Data from publication PMC5651845, “A New Generation of Arachidonic Acid Analogues as Potential Neurological Agent Targeting Cytosolic Phospholipase A2” (Scientific Reports, 2017).

Experiments:
recombinant cPLA2 = target: T1, recombinant cPLA2 (Homo sapiens, UniProt P47712); assay: EnzChek phospholipase A2 fluorogenic assay (IC50); assay type: biochemical
T1 construct: purchased US Biological P4074-03R
T1 sequence (P47712 1-749): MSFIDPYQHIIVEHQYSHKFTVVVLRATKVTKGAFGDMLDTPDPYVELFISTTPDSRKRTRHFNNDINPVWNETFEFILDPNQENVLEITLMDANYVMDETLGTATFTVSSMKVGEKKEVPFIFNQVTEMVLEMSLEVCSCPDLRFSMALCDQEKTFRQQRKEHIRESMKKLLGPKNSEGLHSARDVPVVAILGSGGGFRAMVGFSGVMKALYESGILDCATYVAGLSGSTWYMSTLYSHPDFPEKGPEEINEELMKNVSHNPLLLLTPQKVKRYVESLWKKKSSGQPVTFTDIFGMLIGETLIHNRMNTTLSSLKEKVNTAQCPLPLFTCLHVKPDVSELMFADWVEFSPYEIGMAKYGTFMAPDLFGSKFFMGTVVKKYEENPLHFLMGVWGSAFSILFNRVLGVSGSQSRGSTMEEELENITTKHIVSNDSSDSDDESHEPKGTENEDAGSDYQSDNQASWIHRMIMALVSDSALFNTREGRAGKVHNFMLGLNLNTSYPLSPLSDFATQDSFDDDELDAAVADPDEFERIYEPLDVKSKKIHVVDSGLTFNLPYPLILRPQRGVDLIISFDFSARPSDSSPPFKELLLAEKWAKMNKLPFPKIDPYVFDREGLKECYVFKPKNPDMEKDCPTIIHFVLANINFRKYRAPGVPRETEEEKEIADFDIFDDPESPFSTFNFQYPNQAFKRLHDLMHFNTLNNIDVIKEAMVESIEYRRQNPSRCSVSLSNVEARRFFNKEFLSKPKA
Procedure: The assay was conducted as described above. Instead of adding a fixed concentration of the test compound, various concentrations of compound were reconstituted in DMSO. 48 μL of 1X phospholipase A2 reaction buffer were added into each well of a 96-wells plate. This was followed by addition of 1 μL of recombinant cPLA2 (P4074-03R, US Biological) and 1 μL of the respective concentration of the test compound dissolved in DMSO. The reaction was initiated by adding 50 μL of the substrate solution and incubating at room temperature for 1 h. Fluorescence was measured using a Varioskan plate reader by exciting at 485 nm, while fluorescence emission was detected at 515 nm. Positive control was performed when 1 μL of test compound was replaced by vehicle DMSO. IC50 was expressed as the mean value of duplicate wells from three experiments.

HEK293T cells = assay: MTS cell proliferation assay on HEK293T cells; assay type: cell-based, human; conditions: 10 μM, 48 h and 72 h, vs vehicle control
Procedure: To explore whether the inhibitors are cytotoxic, MTS assay were conducted on BV-2 cells, a murine microglial cell line derived from post-natal mouse cerebella, and HEK293T cells that are derived from human embryonic kidney. Both cell types were treated with 10 μM of 1a, 2g and 2i for 48 h and 72 h (Fig. 3A,B). Dimethyl sulfoxide (DMSO) vehicle control was also included as the compounds were dissolved in DMSO.
Cells were plated on a 96-wells plate and grown for 24 h to a density of 8000 cells per well for both HEK293T and BV-2 cells. Cells were cultured at 37 °C under a 5% CO2 environment in 100 μL of culture medium. Thereafter, the compound of interest dissolved in culture medium at a concentration of 10 μM was replaced into each well. DMSO was added as vehicle in the control group. 3 biological replicates were performed. The plates were then incubated at 37 °C with 5% CO2 for 48 h and 72 h. At each individual time point, 20 μL of CellTiter 96® AQueous One Solution (MTS reagent) was added into each well and re-incubated at 37 °C with 5% CO2 without light for 3 h. Colorimetric readings were taken using a Varioskan plate reader at 490 nm and analyzed. Three independent biological repeats with four technical replicates were performed.

[1] = system: ROS production in BV-2 cells; assay: ROS assay (CM-H2DCFDA) in LPS-stimulated BV-2 cells; assay type: cell-based, murine; conditions: 2, 10 and 20 μM, 2 µg/mL LPS, 14 h
Procedure: CM-H2DCFDA was used as the main detection reagent for ROS for this study. Being a chloromethyl derivative of the conventional H2DCFDA, it is better retained in the cells due to the reaction of its chloromethyl group with intracellular thiol species. In addition, esterase present in the cells would convert the acetate group found in CM-H2DCFDA into carboxylic acid, further retaining it in the cell. To investigate the ROS production by BV-2 cell stimulated with LPS, intracellular ROS was measured 14 h post-stimulation with CM-H2DCFDA fluorescence. A 2-fold increase in ROS was detected as compared to the control. […] This could be because the activation of ROS production might not be solely due to the inflammatory pathway mechanism involving cPLA2. It was reported in previous studies that a multitude of several other processes producing ROS may be at work[51],[52].
20,000 BV-2 cells were seeded into a 96-well plate in 100 uL of culture medium and allowed to grow overnight. When a 90% cell confluency was observed, lipopolysaccharide pre-dissolved in culture medium to achieve a concentration of 2 μg/mL was added to each well of the 96 well. Different concentrations of test compounds in DMSO were added to the LPS containing medium and was then transferred to the cells. […] Fluorescence detection was done by exciting the dye at 485 nm and detection of emission at 525 nm. […]

Compound: CCCCC/C=C\C/C=C\C/C=C\C/C=C\CCCCC(=O)Nc1cccc(C(=O)O)c1 [2i]
- IC50 (recombinant cPLA2): 2900 ± 200 nM
- fold stronger cPLA2 inhibition than 1a (from IC50) (recombinant cPLA2; relative to 1a): 5.5 fold
- cytotoxicity (MTS) on HEK293T cells (HEK293T cells): no significant toxic effects
- ROS level, concentration dependence [1]: dose-dependent decrease in ROS
